Source: patent US20030039689A1, “Polymer-based, sustained release drug delivery system” (priority 2001, published 2003)

Tests used:
[1] = Release test from Chronoflex polymer/TC-32 dip-coated stents into phosphate buffer; type: physicochemical; conditions: phosphate buffer pH 7.4, 37° C., HPLC
Procedure: To 5.0 gm of stirred dimethyl acetamide (DMAC), 300 mg of Chronoflex C(65D) (Lot# CTB-G25B-1234) and 200 mg of Chronoflex C(55D) (Lot# CTB-121B-1265) were added. The polymer was slowly dissolved in DMAC (about 4 hours). Then 5.0 gm of THF was added to the polymer dispersion. The mixture was not a clear solution. Then 100.9 mg of TC-32 was added and dissolved in the mixture.
Three (3) Stents, supplied by Guidant Corp, were coated then with the polymer/TC-32 solution by dipping and followed by air-drying under ambient temperature. The coating and air-drying process was repeated a few times till a total of about 2.0 mg of polymer/TC-32 were applied to each stent. The coated stents were air-dried under ambient temperature in a biological safety cabinet over night. The stents were then vacuum dried at 80° C. for two hour to remove the residue of the solvent. […] Samples were taken daily, and the entire media was replaced with a fresh one at each sampling time.

[2] = Release from TC-32 coated stents, non-implanted and explanted from swine, into phosphate buffer; type: physicochemical, common swine; conditions: stents harvested on study day 5 from swine LAD and non-implanted stents; 0.1 M phosphate buffer
Procedure: Polyurethane (1.008 gm) was added to 50.0 gm of tetrahydrofuran (THF). The mixture was stirred overnight to dissolve the polymer. 5.0 gm of the polymer solution was diluted with 10.0 gm of THF. 150.2 mg of a co-drug of 5-fluorouracil (5FU) and triamcinolone acetonide (TA) (the co-drug being defined as “TC-32”) was added to the polymer solution and dissolved. The coating solution was prepared with 60% codrug loading. A 13% codrug loaded coating solution was also prepared. Bare stents (Tetra, Guidant, Lot# 1092154, 13 mm Tetra) were washed with isopropanol, air-dried, and spray coated with the coating solution using a precision airbrush. The coating was repeated until approximately 1.0 mg of total coating had been applied to each stent. The coated stents were vacuum dried for two hours at 50° C. to remove solvent residue, then subjected to plasma treatment and gamma-irradiation.
Co-drug coated stents were test in two groups. […] Samples were taken periodically and the concentration of co-drug in the buffer was tested by HPLC. The entire release media was replaced after each sample.
Group Two stents were placed in vivo. Three common swine had TC-32 coated stents implanted into the left anterior descending (LAD) coronary artery on study day 1. […] The amount of each drug released into the media was determined by HPLC.

[3] = Effect of gamma irradiation and plasma treatment on drug release from coated stents; type: physicochemical; conditions: stents with or without plasma treatment and gamma-irradiation; 0.1 M phosphate buffer pH 7.4
Procedure: FIGS. 11A and 11B are graphs showing the effect of gamma irradiation and plasma treatment on drug release. […] Samples were taken periodically and the entire release media was replaced after each sample. The amount of each drug released into the media was determined by HPLC.

[4] = Release test from Chronoflex polymer/TC-32 coated HPLC inserts into phosphate buffer; type: physicochemical
Procedure: A mixture of 3.3 gm Chronoflex C(65D) (Lot# CTB-G25B-1234) dispersion containing 0.3 gm of Chronoflex C(65D) and 2.2 gm Chronoflex C(55D) (Lot# CTB-121B-1265) dispersion containing 0.2 gm of Chronoflex C (55D), both in dimethyl acetamide (DMAC) (1:10, w/w) was prepared by mixing the two dispersions together. To this mixture, 6.0 gm of tetrahydrofurane (HPLC grade) were added and mixed. The final mixture was not a clear solution. Then 101.5 mg of a co-drug of 5-fluorouracil (5FU) and triamcinolone acetonide (TA) (the co-drug being defmed as “TC-32”) was added and dissolved into the polymer solution.
Ten (10) HPLC inserts were then coated with the polymer/TC-32 solution by dipping, which was then followed by air-drying under ambient temperature. The coating and air-drying process was repeated four (4) times (5 times total) until a total of about 10 mg of polymer/TC-32 was applied to each insert. The inserts were then placed in an oven at 80° C. for two hour to remove the residue of the solvent.

[5] = Release test from silicone coated glass plates into phosphate buffer, HPLC
[6] = Release test from PVA coated glass plates into phosphate buffer, HPLC; type: physicochemical; conditions: 0.1 M phosphate buffer pH 7.4, 37° C., intact compound plus constituents

Row | release rate (slope of total cumulative release curve) ([5]; silicone coated glass plates, 0.1 M phosphate buffer pH 7.4, 37° C., intact compound plus constituents) [µg/day] | naproxen detected in release media ([5]; silicone coated glass plates, up to day 6, phosphate buffer pH 7.4, 37° C.) [mg] | TC-112 detected in buffer ([5]; silicone coating, up to day 6) [mg] | TC-112 hydrolyzed (calculated from naproxen detected) ([5]; silicone coating, up to day 6) [mg] | total TC-112 released (detected plus hydrolyzed) ([5]; silicone coating, up to day 6) [mg] | release rate (slope of total cumulative release curve) [6] [µg/day] | Compound | intact codrug in the release media [1] | intact codrug in release media [2] | intact codrug in release media [3] | half-life in buffer ([4]; 0.1 m phosphate buffer, pH 7.4, 37° C.) | intact codrug in the release media ([4]; coated HPLC inserts, phosphate buffer pH 7.4, 37° C., HPLC)
1 | – | – | – | – | – | – | CC1(C)O[C@@H]2CC3C4CCC5=CC(=O)C=CC5(C)[C@@]4(F)[C@@H](O)CC3(C)[C@]2(C(=O)COC(=O)OCn2cc(F)c(=O)[nH]c2=O)O1 (some centres unmarked) [TC-32] | No TC-32 was detectable | not detectable | not detectable | short | no TC-32 was detectable
2 | 13.3 | 43.9 | 51.4 | 71.0 | 122.4 | 10 | COc1ccc2cc(C(C)C(=O)OCn3cc(F)c(=O)[nH]c3=O)ccc2c1 (centres unmarked) [TC-112] | – | – | – | – | –
